“And” between values parts separate entries of the source, which are not always exact repeats. Equal values may be shown once.
Tests used:
female ZDF rats [1] = experiment: Serum triglycerides and cholesterol in female ZDF rats on a diabetogenic high fat diet, Compound 1 at 0.03-0.3 mg/kg; assay type: in vivo, rat; conditions: for Cholesterol day 8, 0 hr, Mean / Triglycerides day 8, 0 hr, Mean / Cholesterol day 0, 4 hr, Mean / Triglycerides day 0, 4 hr, Mean / Cholesterol day 7, 4 hr, Mean / Triglycerides day 7, 4 hr, Mean / Cholesterol day 3, 4 hr, Mean / Triglycerides day 3, 4 hr, Mean: group mean of 4 rats; for Cholesterol day 8, 0 hr, Mean / Triglycerides day 8, 0 hr, Mean / Cholesterol day 8, 0 hr / Triglycerides day 8, 0 hr: 24 hours after the last dosing; for Cholesterol day 0, 4 hr, Mean / Triglycerides day 0, 4 hr, Mean / Cholesterol day 0, 4 hr / Triglycerides day 0, 4 hr: day before dosing (baseline); for Cholesterol day 7, 4 hr, Mean / Triglycerides day 7, 4 hr, Mean / Cholesterol day 7, 4 hr / Triglycerides day 7, 4 hr: seventh day of dosing; for Cholesterol day 3, 4 hr, Mean / Triglycerides day 3, 4 hr, Mean / Cholesterol day 3, 4 hr / Triglycerides day 3, 4 hr: third day of dosing; for Cholesterol day 8, 0 hr / Triglycerides day 8, 0 hr / Cholesterol day 0, 4 hr / Triglycerides day 0, 4 hr / Cholesterol day 7, 4 hr / Triglycerides day 7, 4 hr / Cholesterol day 3, 4 hr / Triglycerides day 3, 4 hr: individual animals
Protocol: ZDF rats, which are hyperlipidemic and diabetic, were used as a model to test the effect of RAR antagonists/inhibitors on serum lipids. Female ZDF rats (10–11 weeks old) were fed a GMI 13004 diet, a diabetogenic, high fat diet, for 5–6 weeks. Compound 1 was dissolved in vehicle (2% DMSO, 98% corn oil). Compound 1 was administered at a dosage of 0.03 mg/kg, 0.1 mg/kg, and 0.3 mg/kg body weight. Dosings were performed at approximately 8 a.m. Serum was collected at approximately 12 p.m. on the day before dosing (Day 0, 4 hour); the third day of dosing (Day 3, 4 hour); the seventh day of dosing (Day 7, 4 hour); and 24 hours after the last dosing (Day 8, 0 hour). The levels of triglycerides and cholesterol in the serum samples were measured.

female ZDF rats [2] = experiment: Serum triglycerides and cholesterol in female ZDF rats, Compound 1 and Compound 2 at 10 mg/kg; assay type: in vivo, rat; conditions: 10 mg/kg oral
Protocol: A similar experiment to that described above was performed. Briefly, female ZDF rats (12 weeks old) were fed either a PM 5008 diet or a GMI 13004 diet. Control vehicle consisted of 2% DMSO and 98% corn oil. Compound 1 and Compound 2 were administered at a dosage of 10 mg/kg body weight. Dosings were administered at approximately 8 a.m. Serum was collected on the first day of dosing at approximately 8 a.m. (Day 1, 0 hour) and 2 p.m. (Day 1, 6 hour); the fourth day of dosing at approximately 8 a.m. (Day 4, 0 hour); and the last day of dosing at approximately 8 a.m. (Day 7, 0 hour) and 2 p.m. (Day 7, 6 hour). The levels of triglycerides and cholesterol in the serum samples were measured. The results are shown in Table 2 and are illustrated graphically in FIGS. 3A and 3B.

male cynomolgus monkeys = experiment: Serum triglycerides of male cynomolgus monkeys treated by gastric intubation; assay type: in vivo, cynomolgus monkey; conditions: 1.0 mg/0.4 ml/kg by gastric intubation, daily; mean of 3 monkeys
Protocol: Five male cynomologus monkeys were employed in the study. […] Compound 1 is an RAR antagonist or inhibitor. The remaining two were similarly treated with a vehicle to serve as control. Serum samples were collected on days 1, 8, 15, 22 and 25 for triglyceride determination. Serum samples from days 8, 15, 22 and 25 were also assayed for the concentration of Compound 1.

male SJL mice [3] = experiment: Serum triglycerides (STG) in male SJL mice; assay type: in vivo, mouse; conditions: 20 mg/kg oral daily
Protocol: Male SJL mice were dosed orally with vehicle, Compound 1 (an RAR pan-antagonist), or Compound 3 (an RARE antagonist) for 4 consecutive days. The structure and synthesis of Compound 1 is described in Example I. The structure of Compound 3 is shown below, and the compound was synthesized using routine methods:
The test compounds were dissolved in corn oil and given at a dosage/volume of 20 mg/5 ml/kg.
On day 3, serum triglycerides (STG) were determined from samples collected at 7 a.m.
(§1) On day 4, animals were fasted after dosing, starting at 8 a.m. Following 6 hours of fasting, blood samples were collected prior to intravenous injection of WR-1339 at 100 mg/5 ml/kg. Additional serum samples were collected at 1 and 2 hours after WR-1339 injection. WR-1339 is a detergent that inactivates lipoprotein lipase and thus prevents the removal of triglycerides from circulation. By measuring the increase of STG after WR-1339 administration in fasted animals, the hepatic triglyceride (HTG) output during fasting can be estimated.
(§2) Due to the lack of effect of Compound 3 at 20 mg/kg, the dose was increased to 100 mg/kg in the same set of mice. STG was determined on day 3 prior to dosing (Day 3, 8 a.m.). […] To ensure that Compound 3 would be bioavailable, Compound 3 was dissolved in DMSO and given by intraperitoneal injections, once at 4 p.m. on day 3 and once at 8 a.m. on day 4, at a dosage of 100 mg/kg/injection. Administration of WR-1339 and blood collections on day 4 were similarly conducted as described above.

male SJL mice [4] = experiment: Hepatic triglyceride (HTG) output after WR-1339 injection in fasted male SJL mice; assay type: in vivo, mouse; conditions: 20 mg/kg oral daily for 4 days; fasted
Protocol: as §1, §2

[5] = Stability to normal light; assay type: physicochemical
[6] = GMI 13004 diet, group mean of 5 rats, first day of dosing, 2 p.m.
[7] = GMI 13004 diet, group mean of 5 rats, first day of dosing, about 8 a.m. (baseline)
[8] = GMI 13004 diet, group mean of 5 rats, fourth day of dosing, 8 a.m.
[9] = GMI 13004 diet, group mean of 5 rats, last day of dosing, 2 p.m.
[10] = GMI 13004 diet, group mean of 5 rats, last day of dosing, 8 a.m.
[11] = GMI 13004 diet, individual animals, first day of dosing, 2 p.m.
[12] = GMI 13004 diet, individual animals, first day of dosing, about 8 a.m. (baseline)
[13] = GMI 13004 diet, individual animals, fourth day of dosing, 8 a.m.
[14] = GMI 13004 diet, individual animals, last day of dosing, 2 p.m.
[15] = GMI 13004 diet, individual animals, last day of dosing, 8 a.m.

**Q.** What does the source list for `CCc1ccc(C2=CC(C)(C)Sc3ccc(C#Cc4ccc(C(=O)O)cc4)cc32)cc1` [Compound 1, 4-[[4-(4-ethylphenyl)-2,2-dimethyl-(2H)-thiochromen-6-yl]-ethynyl]-benzoic acid]?
**A.** serum triglyceride levels as % of pre-treatment triglyceride levels (female ZDF rats [1]; 0.03 mg/kg oral): about 59%; Cholesterol day 8, 0 hr, Mean (female ZDF rats [1]; 0.03 mg/kg oral): 110; Triglycerides day 8, 0 hr, Mean (female ZDF rats [1]; 0.03 mg/kg oral): 781; Cholesterol day 0, 4 hr, Mean (female ZDF rats [1]; 0.03 mg/kg oral): 123; Triglycerides day 0, 4 hr, Mean (female ZDF rats [1]; 0.03 mg/kg oral): 1334; Cholesterol day 7, 4 hr, Mean (female ZDF rats [1]; 0.03 mg/kg oral): 109; Triglycerides day 7, 4 hr, Mean (female ZDF rats [1]; 0.03 mg/kg oral): 749; Cholesterol day 3, 4 hr, Mean (female ZDF rats [1]; 0.03 mg/kg oral): 105; Triglycerides day 3, 4 hr, Mean (female ZDF rats [1]; 0.03 mg/kg oral): 794; Cholesterol day 8, 0 hr (female ZDF rats [1]; 0.03 mg/kg oral): 108 (2×) and 93 and 129; Triglycerides day 8, 0 hr (female ZDF rats [1]; 0.03 mg/kg oral): 846 and 531 and 1230 and 516; Cholesterol day 0, 4 hr (female ZDF rats [1]; 0.03 mg/kg oral): 114 and 129 (2×) and 120; Triglycerides day 0, 4 hr (female ZDF rats [1]; 0.03 mg/kg oral): 1200 and 1245 and 1944 and 945; Cholesterol day 7, 4 hr (female ZDF rats [1]; 0.03 mg/kg oral): 111 and 105 and 96 and 123; Triglycerides day 7, 4 hr (female ZDF rats [1]; 0.03 mg/kg oral): 771 and 468 and 855 and 903; Cholesterol day 3, 4 hr (female ZDF rats [1]; 0.03 mg/kg oral): 93 and 96 and 129 and 102; Triglycerides day 3, 4 hr (female ZDF rats [1]; 0.03 mg/kg oral): 663 and 651 and 1197 and 666; serum triglyceride levels as % of pre-treatment triglyceride levels (female ZDF rats [1]; 0.1 mg/kg oral): ~40%; Cholesterol day 8, 0 hr, Mean (female ZDF rats [1]; 0.1 mg/kg oral): 105; Triglycerides day 8, 0 hr, Mean (female ZDF rats [1]; 0.1 mg/kg oral): 479; Cholesterol day 0, 4 hr, Mean (female ZDF rats [1]; 0.1 mg/kg oral): 125; Triglycerides day 0, 4 hr, Mean (female ZDF rats [1]; 0.1 mg/kg oral): 1208; Cholesterol day 7, 4 hr, Mean (female ZDF rats [1]; 0.1 mg/kg oral): 107; Triglycerides day 7, 4 hr, Mean (female ZDF rats [1]; 0.1 mg/kg oral): 505; Cholesterol day 3, 4 hr, Mean (female ZDF rats [1]; 0.1 mg/kg oral): 106; Triglycerides day 3, 4 hr, Mean (female ZDF rats [1]; 0.1 mg/kg oral): 497; Cholesterol day 8, 0 hr (female ZDF rats [1]; 0.1 mg/kg oral): 102 (2×) and 105 and 111; Triglycerides day 8, 0 hr (female ZDF rats [1]; 0.1 mg/kg oral): 390 and 339 and 486 and 699; Cholesterol day 0, 4 hr (female ZDF rats [1]; 0.1 mg/kg oral): 123 (2×) and 129 and 126; Triglycerides day 0, 4 hr (female ZDF rats [1]; 0.1 mg/kg oral): 1284 and 993 and 1197 and 1356; Cholesterol day 7, 4 hr (female ZDF rats [1]; 0.1 mg/kg oral): 114 and 90 and 111 (2×); Triglycerides day 7, 4 hr (female ZDF rats [1]; 0.1 mg/kg oral): 429 and 384 and 618 and 588; Cholesterol day 3, 4 hr (female ZDF rats [1]; 0.1 mg/kg oral): 129 and 84 and 96 and 114; Triglycerides day 3, 4 hr (female ZDF rats [1]; 0.1 mg/kg oral): 402 and 360 and 681 and 546; serum triglyceride levels as % of pre-treatment triglyceride levels (female ZDF rats [1]; 0.3 mg/kg oral): ~14%; Cholesterol day 8, 0 hr, Mean (female ZDF rats [1]; 0.3 mg/kg oral): 115; Triglycerides day 8, 0 hr, Mean (female ZDF rats [1]; 0.3 mg/kg oral): 215; Cholesterol day 0, 4 hr, Mean (female ZDF rats [1]; 0.3 mg/kg oral): 131; Triglycerides day 0, 4 hr, Mean (female ZDF rats [1]; 0.3 mg/kg oral): 1550; Cholesterol day 7, 4 hr, Mean (female ZDF rats [1]; 0.3 mg/kg oral): 119; Triglycerides day 7, 4 hr, Mean (female ZDF rats [1]; 0.3 mg/kg oral): 215; Cholesterol day 3, 4 hr, Mean (female ZDF rats [1]; 0.3 mg/kg oral): 101; Triglycerides day 3, 4 hr, Mean (female ZDF rats [1]; 0.3 mg/kg oral): 282; Cholesterol day 8, 0 hr (female ZDF rats [1]; 0.3 mg/kg oral): 102 and 120 and 123 and 114; Triglycerides day 8, 0 hr (female ZDF rats [1]; 0.3 mg/kg oral): 222 and 180 and 195 and 261; Cholesterol day 0, 4 hr (female ZDF rats [1]; 0.3 mg/kg oral): 105 and 141 and 156 and 123; Triglycerides day 0, 4 hr (female ZDF rats [1]; 0.3 mg/kg oral): 882 and 1725 and 2244 and 1350; Cholesterol day 7, 4 hr (female ZDF rats [1]; 0.3 mg/kg oral): 99 and 126 and 132 and 120; Triglycerides day 7, 4 hr (female ZDF rats [1]; 0.3 mg/kg oral): 195 and 222 and 267 and 174; Cholesterol day 3, 4 hr (female ZDF rats [1]; 0.3 mg/kg oral): 93 and 96 and 108 (2×); Triglycerides day 3, 4 hr (female ZDF rats [1]; 0.3 mg/kg oral): 282 and 234 and 297 and 315; effect on serum cholesterol levels (female ZDF rats [1]; 0.03-0.3 mg/kg oral): effective at lowering serum cholesterol levels, although the effect was more modest than observed for serum triglycerides; effect on lowering serum cholesterol (female ZDF rats [2]): more modest effect; serum triglycerides as % of pre-treatment levels (female ZDF rats [2]): about 7%; Cholesterol day 1, 6 hr, Mean (female ZDF rats [2]; [6]): 107; Triglycerides day 1, 6 hr, Mean (female ZDF rats [2]; [6]): 1183; Cholesterol day 1, 0 hr, Mean (female ZDF rats [2]; [7]): 131; Triglycerides day 1, 0 hr, Mean (female ZDF rats [2]; [7]): 1410; Cholesterol day 4, 0 hr, Mean (female ZDF rats [2]; [8]): 82; Triglycerides day 4, 0 hr, Mean (female ZDF rats [2]; [8]): 138; Cholesterol day 7, 6 hr, Mean (female ZDF rats [2]; [9]): 90; Triglycerides day 7, 6 hr, Mean (female ZDF rats [2]; [9]): 86; Cholesterol day 7, 0 hr, Mean (female ZDF rats [2]; [10]): 89; Triglycerides day 7, 0 hr, Mean (female ZDF rats [2]; [10]): 72; Cholesterol day 1, 6 hr (female ZDF rats [2]; [11]): 132 and 90 (2×) and 126 and 96; Triglycerides day 1, 6 hr (female ZDF rats [2]; [11]): 1248 and 750 and 1674 and 978 and 1266; Cholesterol day 1, 0 hr (female ZDF rats [2]; [12]): 162 and 108 (2×) and 156 and 120; Triglycerides day 1, 0 hr (female ZDF rats [2]; [12]): 1770 and 1182 and 1500 and 1278 and 1320; Cholesterol day 4, 0 hr (female ZDF rats [2]; [13]): 78 and 90 (2×) and 84 and 66; Triglycerides day 4, 0 hr (female ZDF rats [2]; [13]): 174 and 132 and 114 and 102 and 168; Cholesterol day 7, 6 hr (female ZDF rats [2]; [14]): 102 and 72 and 132 and 48 and 96; Triglycerides day 7, 6 hr (female ZDF rats [2]; [14]): 96 and 66 and 60 (2×) and 150; Cholesterol day 7, 0 hr (female ZDF rats [2]; [15]): 96 (2×) and 84 and 66 and 102; Triglycerides day 7, 0 hr (female ZDF rats [2]; [15]): 78 and 96 and 60 (2×) and 66; Serum triglycerides Day 25, Mean (male cynomolgus monkeys): 24.0 mg/dL; non-fasting STG (Day 3, 8 a.m.) (male SJL mice [3]): appeared to lower; fasting STG (Day 4, 2 p.m.) (male SJL mice [3]; after 6 hours of fasting): but not fasting STG; HTG output after WR-1339 injection (male SJL mice [4]): reduction of HTG output; stability to normal light [5]: relatively stable to normal light
